Source: PubChem BioAssay AID330 (DTP/NCI, 2004)
Several values for one entry are separate records, joined by “and”; a condition that tells them apart may be missing. Equal values may be shown once. Inconclusive results and toxic doses are left out.

System: P388 leukemia ip, CD2F1 mice, survival T/C
Assay: NCI In Vivo Anticancer Drug Screen. Data for tumor model P388 Leukemia (intraperitoneal) in CD2F1 (CDF1) mice
Settings: endpoint: median survival time, higher = longer survival
Outline: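 Mice carrying the transplanted tumor received test compound or vehicle. Survival was recorded in each group, and the value is the treated-group measurement divided by that of the vehicle-treated control group.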

[1] = dose: 50.0 mg/kg/injection, schedule: Q01DX009 (ip), vehicle: saline with Tween-80
[2] = dose: 100.0 mg/kg/injection, schedule: Q01DX009 (ip), vehicle: saline with Tween-80
[3] = dose: 200.0 mg/kg/injection, schedule: Q01DX009 (ip), vehicle: saline with Tween-80
[4] = dose: 25.0 mg/kg/injection, schedule: Q01DX009 (ip), vehicle: saline with Tween-80
[5] = dose: 60.0 mg/kg/injection, schedule: Q01DX005 (ip), vehicle: saline with Tween-80
[6] = dose: 120.0 mg/kg/injection, schedule: Q01DX005 (ip), vehicle: saline with Tween-80
[7] = dose: 50.0 mg/kg/injection, schedule: Q01DX005 (ip), vehicle: Klucel (hydroxypropylcellulose) (HPC)
[8] = dose: 6.25 mg/kg/injection, schedule: Q01DX005 (ip), vehicle: Klucel (hydroxypropylcellulose) (HPC)
[9] = dose: 12.5 mg/kg/injection, schedule: Q01DX005 (ip), vehicle: Klucel (hydroxypropylcellulose) (HPC)
[10] = dose: 25.0 mg/kg/injection, schedule: Q01DX005 (ip), vehicle: Klucel (hydroxypropylcellulose) (HPC)

CC(=O)c1c(O)c2ccccc2c2nc3ccccc3nc12
T/C (dose: 50.0 mg/kg/injection, schedule: Q01DX009 (ip), vehicle: saline): 96 % of control
T/C (dose: 100.0 mg/kg/injection, schedule: Q01DX009 (ip), vehicle: saline): 91 % of control
T/C (dose: 200.0 mg/kg/injection, schedule: Q01DX009 (ip), vehicle: saline): 91 % of control

CCOC(=O)c1ccc(NC(=O)Nc2ncc(Cl)cc2Cl)cc1
T/C [1]: 89 % of control
T/C [2]: 86 % of control
T/C [3]: 94 % of control

COc1ccc(OC)c(NC2=C(Cl)C(=O)C(Nc3cc(OC)ccc3OC)=C(Cl)C2=O)c1
T/C (dose: 12.5 mg/kg/injection, schedule: Q01DX009 (ip), vehicle: saline with Tween-80): 98 % of control
T/C [4]: 97 % of control
T/C [1]: 90 % of control
T/C [2]: 87 % of control
T/C [3]: 91 % of control

C[n+]1c2ccccc2cc2ccccc21
T/C (dose: 25.0 mg/kg/injection, schedule: Q04DX003 (ip), vehicle: saline with Tween-80): 86 % of control

C=C1C(=O)O[C@@H]2[C@H](O)[C@@H](C)[C@@H]3C=CC(=O)[C@@]3(C)[C@@H](OC(=O)/C(C)=C/C)[C@H]12
T/C (dose: 1.5 mg/kg/injection, schedule: Q01DX009 (ip), vehicle: saline + alcohol): 107 % of control
T/C (dose: 6.0 mg/kg/injection, schedule: Q01DX009 (ip), vehicle: saline + alcohol): 118 % of control
T/C (dose: 6.75 mg/kg/injection, schedule: Q01DX009 (ip), vehicle: saline + alcohol): 158 % of control
T/C (dose: 8.75 mg/kg/injection, schedule: Q01DX009 (ip), vehicle: saline + alcohol): 120 % of control
T/C (dose: 12.0 mg/kg/injection, schedule: Q01DX009 (ip), vehicle: saline + alcohol): 116 % of control
T/C (dose: 12.5 mg/kg/injection, schedule: Q01DX009 (ip), vehicle: saline + alcohol): 164 % of control

NC(CSc1nc2ccccn2c1[N+](=O)[O-])C(=O)O (stereo not given)
T/C (dose: 12.5 mg/kg/injection, schedule: Q01DX009 (ip), vehicle: Klucel (hydroxypropylcellulose) (HPC)): 98 % of control
T/C (dose: 25.0 mg/kg/injection, schedule: Q01DX009 (ip), vehicle: Klucel (hydroxypropylcellulose) (HPC)): 100 % of control
T/C (dose: 50.0 mg/kg/injection, schedule: Q01DX009 (ip), vehicle: Klucel (hydroxypropylcellulose) (HPC)): 99 % of control and 100 % of control

CN(C)CCCNc1nc(-c2cccc(C(Cl)(Cl)Cl)c2)nc(C(Cl)(Cl)Cl)n1
T/C [4]: 109 % of control
T/C [1]: 111 % of control

CCCCCCCCC#CCO
T/C [5]: 86 % of control
T/C [6]: 86 % of control

COc1ccc(CN2CCC[S+]2C)cc1 (stereo not given)
T/C (dose: 50.0 mg/kg/injection, schedule: Q01DX005 (ip), vehicle: saline): 95 % of control

C(/Oc1ccc(-c2ccccc2)cc1)=C(/c1ccccc1)c1ccccc1-c1ccccc1
T/C [7]: 101 % of control
T/C (dose: 100.0 mg/kg/injection, schedule: Q01DX005 (ip), vehicle: Klucel (hydroxypropylcellulose) (HPC)): 99 % of control
T/C (dose: 200.0 mg/kg/injection, schedule: Q01DX005 (ip), vehicle: Klucel (hydroxypropylcellulose) (HPC)): 92 % of control

CCCCOC1OCN(C)CC1(C)C (stereo not given)
T/C [4]: 98 % of control
T/C [1]: 114 % of control

CC1OC(OC2C(O)C(OCCc3ccc(O)c(O)c3)OC(CO)C2OC(=O)/C=C/c2ccc(O)c(O)c2)C(O)C(O)C1O (stereo not given)
T/C (dose: 4.75 mg/kg/injection, schedule: Q01DX005 (ip), vehicle: Klucel (hydroxypropylcellulose) (HPC)): 106 % of control
T/C (dose: 9.5 mg/kg/injection, schedule: Q01DX005 (ip), vehicle: Klucel (hydroxypropylcellulose) (HPC)): 100 % of control
T/C (dose: 19.0 mg/kg/injection, schedule: Q01DX005 (ip), vehicle: Klucel (hydroxypropylcellulose) (HPC)): 100 % of control
T/C (dose: 38.0 mg/kg/injection, schedule: Q01DX005 (ip), vehicle: Klucel (hydroxypropylcellulose) (HPC)): 100 % of control

O=C1CC2C(O)OC(O)C(C1)N2C(=O)OCC(Cl)(Cl)Cl (stereo not given)
T/C [8]: 106 % of control
T/C [9]: 106 % of control
T/C [10]: 114 % of control

O=C(O)CSCC(=O)Nc1cc(C(F)(F)F)ccc1Cl
T/C [5]: 95 % of control
T/C [6]: 100 % of control
T/C (dose: 240.0 mg/kg/injection, schedule: Q01DX005 (ip), vehicle: saline with Tween-80): 96 % of control

Cc1c(C#N)c(N)nc2c(C(N)=O)nsc12
T/C [8]: 98 % of control
T/C [9]: 102 % of control
T/C [10]: 95 % of control
T/C [7]: 91 % of control
